{"source": "patent US20090209573A1", "about": "“COMPOUNDS AND COMPOSITIONS AS HEDGEHOG PATHWAY MODULATORS” (IRM LLC, priority 2004, published 2009)", "type_in_all_cases": "cell-based", "key": {"[1]": {"system": "Shh-mediated pathway activation (Gli-reporter in C3H10T1/2 cells)", "test": "Gli-Luc Reporter Assay for Hh Pathway Inhibition", "conditions": "C3H 10T1/2, recombinant mouse Shh protein 2 μg/mL, 48 hours, firefly luciferase normalized to Renilla, read-out: EC50 to block Shh-mediated pathway activation", "procedure": "Gli-Luc Reporter Assay for Hh Pathway Inhibition\nMouse embryonic mesoderm fibroblasts C3H10T1/2 cells (obtained from American Type Culture Collection, ATCC, Manassas, Va.) are cultured in MEM-α medium (Gibco/Invitrogen, Carlsbad, Calif.) supplemented with 10% heat inactivated FBS (Gibco/Invitrogen, Carlsbad, Calif.), 50 unit/mL penicillin and 50 μg/mL of streptomycin (Gibco/Invitrogen, Carlsbad, Calif.) at 37° C. with 5% CO2 in air atmosphere. C3H10T1/2 cells in a 10 cm dish are co-transfected with 8 μg of Gli-reporter plasmid and 2 μg of Renilla luciferase control reporter (Promega, Madison, Wis.) with 30 μL of FuGENE6 (Roche Diagnostics, Indianapolis, Ind.) following the manufacturer's protocol. After 12 hours, cells are trypsinized and replated into a 96-well plate with MEM-α medium supplemented with 2% FBS, and treated with recombinant mouse Shh protein (expressed in E. coli, 2 μg/mL) and different concentrations of a compound of the invention. After 48 hours, the firefly luciferase and Renilla luciferase activities are assayed with the Dual-Glo™ Luciferase Assay System (Promega, Madison, Wis.). Firefly luciferase activity is normalized to Renilla luciferase activity. The EC50 is measured when the effect of the compound reduces the luminescence signal by 50%."}, "[2]": {"system": "Daoy cells (medulloblastoma cell line)", "test": "Cyto-toxicity Assay (Cell Titer-Glo cell viability), Daoy cells", "conditions": "Homo sapiens, 48 h, 2 days, luminescent cell viability, read-out: EC50 against the proliferation of Daoy cells", "procedure": "(§1) A cytotoxicity assay is performed to compare the effects of a compound of the invention on medulloblastoma cells (Daoy cells), basal cell carcinoma cells (TE354.T cells) and control cells (human normal fibroblast) according to the following procedure:\nDaoy cells (medulloblastoma cell line) are purchased from ATCC, and cultured in Minimum essential medium (Eagle) with 2 mM L-glutamine and Earle's BSS adjusted to contain 1.5 g/L sodium bicarbonate, 0.1 mM non-essential amino acids, and 1.0 mM sodium pyruvate and 10% FBS at 37° C. with 5% CO2 in an air atmosphere.\n(§2) Each of the above cell lines are independently seeded into 96-well plates and cultured to a density of 5,000-10,000 cells/well. A compound of the invention, at different concentrations, is added into the cell cultures. After 2 days, the cell viability is evaluated with Cell Titer-Glo Luminescent Cell Viability Assay Kit (Promega) following the manufacturer's protocol. The cell viability is directly measured by luminescent signaling and EC50s are measured when the signal is inhibited 50%."}, "[3]": {"system": "normal human dermal fibroblast cells", "test": "Cyto-toxicity Assay (Cell Titer-Glo cell viability), control cells", "conditions": "2 days, luminescent cell viability", "procedure": "as §1\nNormal human dermal fibroblast cells (Clonetics) are cultured in Fibroblast Growth Medium (Clonetics).\nas §2"}}, "data": [{"smiles": "CCOc1ccc(Nc2nc(-c3c(C)nc4ccccn34)cs2)cc1", "note": "[Example 1, (4-Ethoxy-phenyl)-[4-(2-methyl-imidazo[1,2-a]pyridin-3-yl)-thiazol-2-yl]-amine]", "values": [{"measurement": "EC50", "setting": "[1]", "value": 30, "unit": "nM"}, {"measurement": "EC50", "setting": "[2]", "value": 30, "unit": "nM"}, {"measurement": "toxic effect on normal human dermal fibroblast cells (control)", "setting": "[3]", "value": "no toxic effect"}]}]}
